Toxic doses and inconclusive results are not listed.
Test system: BDF1 mice, P388 leukemia ip, median survival T/C
Assay: NCI In Vivo Anticancer Drug Screen. Data for tumor model P388 Leukemia (intraperitoneal) in B6D2F1 (BDF1) mice
Conditions: endpoint: median survival time, higher = longer survival
Procedure, shortened: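 Antitumour effect was judged in vivo: survival in drug-treated mice, normalised to that of vehicle-dosed controls, gives the reported T/C.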

[1] = dose: 100.0 mg/kg/injection, schedule: Q04DX003 (ip), vehicle: saline with Tween-80
[2] = dose: 200.0 mg/kg/injection, schedule: Q04DX003 (ip), vehicle: saline with Tween-80
[3] = dose: 100.0 mg/kg/injection, schedule: Q01DX009 (ip), vehicle: saline
[4] = dose: 100.0 mg/kg/injection, schedule: Q04DX003 (ip), vehicle: Klucel (hydroxypropylcellulose) (HPC)

SMILES: CC(=O)CC(Cl)(C(F)(F)F)C(F)(F)F
- T/C (dose: 50.0 mg/kg/injection, schedule: Q04DX003 (ip), vehicle: saline with Tween-80): 100 % of control
- T/C [1]: 100 % of control
- T/C [2]: 109 % of control

SMILES: Cc1ccc(S)c(S)c1
- T/C (dose: 3.12 mg/kg/injection, schedule: Q01DX009 (ip), vehicle: saline): 97 % of control
- T/C (dose: 6.25 mg/kg/injection, schedule: Q01DX009 (ip), vehicle: saline): 103 % of control
- T/C (dose: 12.5 mg/kg/injection, schedule: Q01DX009 (ip), vehicle: saline): 103 % of control
- T/C (dose: 25.0 mg/kg/injection, schedule: Q01DX009 (ip), vehicle: saline): 112 % of control

SMILES: Clc1ccc(N=C/C=C\C=C/Nc2ccc(Cl)cc2)cc1
- T/C (dose: 20.0 mg/kg/injection, schedule: Q01DX009 (ip), vehicle: saline with Tween-80): 91 % of control

SMILES: COC(=O)C(CCC1CCCCN1)(c1ccccc1)c1ccccc1 (centres undefined)
- T/C (dose: 66.0 mg/kg/injection, schedule: Q04DX003 (ip), vehicle: saline with Tween-80): 123 % of control
- T/C [3]: 90 % of control

SMILES: Ic1ccc(N=Cc2cccs2)cc1
- T/C (dose: 50.0 mg/kg/injection, schedule: Q01DX009 (ip), vehicle: saline with Tween-80): 117 % of control
- T/C (dose: 100.0 mg/kg/injection, schedule: Q01DX009 (ip), vehicle: saline with Tween-80): 99 % of control
- T/C (dose: 200.0 mg/kg/injection, schedule: Q01DX009 (ip), vehicle: saline with Tween-80): 97 % of control
- T/C (dose: 400.0 mg/kg/injection, schedule: Q01DX009 (ip), vehicle: saline with Tween-80): 108 % of control

SMILES: Clc1c(Cl)c(CBr)c(Cl)c(CBr)c1Cl
- T/C (dose: 20.0 mg/kg/injection, schedule: Q01DX009 (ip), vehicle: Klucel (hydroxypropylcellulose) (HPC)): 100 % of control
- T/C (dose: 40.0 mg/kg/injection, schedule: Q01DX009 (ip), vehicle: Klucel (hydroxypropylcellulose) (HPC)): 95 % of control
- T/C (dose: 50.0 mg/kg/injection, schedule: Q01DX009 (ip), vehicle: saline sonified): 113 % of control
- T/C (dose: 50.0 mg/kg/injection, schedule: Q04DX003 (ip), vehicle: Klucel (hydroxypropylcellulose) (HPC)): 100 % of control
- T/C (dose: 88.0 mg/kg/injection, schedule: Q04DX003 (ip), vehicle: Klucel (hydroxypropylcellulose) (HPC)): 108 % of control
- T/C (dose: 100.0 mg/kg/injection, schedule: Q01DX009 (ip), vehicle: saline sonified): 118 % of control
- T/C [4]: 110 % of control
- T/C (dose: 132.0 mg/kg/injection, schedule: Q04DX003 (ip), vehicle: Klucel (hydroxypropylcellulose) (HPC)): 91 % of control
- T/C (dose: 132.0 mg/kg/injection, schedule: Q04DX003 (ip), vehicle: saline sonified): 122 % of control
- T/C (dose: 200.0 mg/kg/injection, schedule: Q04DX003 (ip), vehicle: saline sonified): 150 % of control

SMILES: CC1(NC(=O)N(CCCl)N=O)CCCC1
- T/C [1]: 272 % of control
- T/C [2]: 90 % of control

SMILES: CC(C)C1(C(=O)NN)OC2(O)CCCCCN2C1=O (centres undefined)
- T/C [3]: 90 % of control
- T/C (dose: 200.0 mg/kg/injection, schedule: Q01DX009 (ip), vehicle: saline): 90 % of control
- T/C (dose: 400.0 mg/kg/injection, schedule: Q01DX009 (ip), vehicle: saline): 100 % of control

SMILES: Cc1ccc(S(=O)(=O)N2CC3CC2CN3Cc2ccccc2)cc1 (centres undefined)
- T/C (dose: 100.0 mg/kg/injection, schedule: Q01DX009 (ip), vehicle: Klucel (hydroxypropylcellulose) (HPC)): 109 % of control
- T/C [4]: 104 % of control
- T/C (dose: 200.0 mg/kg/injection, schedule: Q01DX009 (ip), vehicle: Klucel (hydroxypropylcellulose) (HPC)): 104 % of control
- T/C (dose: 200.0 mg/kg/injection, schedule: Q04DX003 (ip), vehicle: Klucel (hydroxypropylcellulose) (HPC)): 100 % of control
- T/C (dose: 400.0 mg/kg/injection, schedule: Q01DX009 (ip), vehicle: Klucel (hydroxypropylcellulose) (HPC)): 100 % of control
- T/C (dose: 400.0 mg/kg/injection, schedule: Q04DX003 (ip), vehicle: Klucel (hydroxypropylcellulose) (HPC)): 95 % of control

SMILES: O=C1c2ccccc2C(=O)N1CNc1cccc(NCN2C(=O)c3ccccc3C2=O)c1
- T/C (dose: 100.0 mg/kg/injection, schedule: Q01DX001 (ip), vehicle: saline): 100 % of control
- T/C (dose: 100.0 mg/kg/injection, schedule: Q04DX003 (ip), vehicle: saline): 104 % of control
- T/C (dose: 200.0 mg/kg/injection, schedule: Q01DX001 (ip), vehicle: saline): 100 % of control
- T/C (dose: 200.0 mg/kg/injection, schedule: Q04DX003 (ip), vehicle: saline): 104 % of control
- T/C (dose: 400.0 mg/kg/injection, schedule: Q01DX001 (ip), vehicle: saline): 90 % of control
- T/C (dose: 400.0 mg/kg/injection, schedule: Q04DX003 (ip), vehicle: saline): 100 % of control

SMILES: O=C(CC(=O)NN=C1CCCCCC1)NN=C1CCCCCC1
- T/C (dose: 37.5 mg/kg/injection, schedule: Q01DX009 (ip), vehicle: saline with Tween-80): 98 % of control
- T/C (dose: 75.0 mg/kg/injection, schedule: Q01DX009 (ip), vehicle: saline with Tween-80): 105 % of control
- T/C (dose: 150.0 mg/kg/injection, schedule: Q01DX009 (ip), vehicle: saline with Tween-80): 99 % of control

From PubChem BioAssay AID328 (DTP/NCI, 2004)
